Literature values in publication PMC9099118 (Clinical and Translational Science, 2022).

Conditions: Genuair multidose DPI, HVs; cited from earlier work

For `O=C(O[C@H]1C[N+]2(CCCOc3ccccc3)CCC1CC2)C(O)(c1cccs1)c1cccs1` [aclidinium bromide], the “mean emitted lung dose” value is listed as “approximately 35%”.
